Counter-ions that a name gives are not always drawn. Like-named read-outs stand apart in the source and are kept apart here.

This assay concerns the target T1, β-catenin/BCL9 PPI (Homo sapiens, UniProt P35222).
T1 construct: Wild-type full-length β-catenin were cloned into a pET-28b vector carrying a C-terminal 6×histidine; made in house; host or cells: Escherichia coli BL21 DE3 (β-catenin); BCL9 peptide chemically synthesized
T1 sequence (P35222 1-781): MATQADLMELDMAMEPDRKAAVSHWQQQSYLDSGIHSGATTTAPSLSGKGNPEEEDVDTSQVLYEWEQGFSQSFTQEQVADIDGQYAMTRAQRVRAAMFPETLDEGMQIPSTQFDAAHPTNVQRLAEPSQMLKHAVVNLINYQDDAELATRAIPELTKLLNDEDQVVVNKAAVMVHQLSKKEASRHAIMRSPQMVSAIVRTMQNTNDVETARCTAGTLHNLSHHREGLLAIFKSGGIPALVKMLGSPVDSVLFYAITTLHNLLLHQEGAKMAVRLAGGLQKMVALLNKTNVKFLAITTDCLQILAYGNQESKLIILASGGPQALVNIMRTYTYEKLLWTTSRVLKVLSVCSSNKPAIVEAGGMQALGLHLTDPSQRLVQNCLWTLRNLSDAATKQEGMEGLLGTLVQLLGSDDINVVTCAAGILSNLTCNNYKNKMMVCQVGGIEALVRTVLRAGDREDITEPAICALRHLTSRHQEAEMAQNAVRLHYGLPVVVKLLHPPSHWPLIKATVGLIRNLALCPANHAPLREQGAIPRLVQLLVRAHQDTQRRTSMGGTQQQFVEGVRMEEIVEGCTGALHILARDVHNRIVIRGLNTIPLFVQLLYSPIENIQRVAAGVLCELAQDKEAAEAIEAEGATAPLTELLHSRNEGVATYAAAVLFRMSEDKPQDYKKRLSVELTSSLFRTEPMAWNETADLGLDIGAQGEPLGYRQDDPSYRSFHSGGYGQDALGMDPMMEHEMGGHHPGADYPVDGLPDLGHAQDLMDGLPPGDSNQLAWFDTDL
Briefly: AlphaScreen competitive inhibition assay of the β-catenin/BCL9 PPI. The class given is binding. The note with it: Example 1 compounds, mean ± SD, triplicate, Ki derived from IC50 (Nikolovska-Coleska method). As to the method:
AlphaScreen competitive inhibition assays. For the competitive inhibition assays of the β-catenin/BCL9 PPI, the negative control (equivalent to 0% inhibition) refers to 5.0 nM of biotinylated BCL9, 40 nM of His6-tagged β-catenin, and 10 μg/mL of donor and acceptor beads in a final volume of 25 μL assay buffer, but no tested inhibitor present. The positive control (equivalent to 100% inhibition) refers to 5.0 nM of biotinylated BCL9 and 10 μg/mL of donor and acceptor beads in a final volume of 25 μL assay buffer.
For the β-catenin/BCL9 assay, 5 nM of biotinylated BCL9 and 40 nM of His6-tagged β-catenin were incubated in assay buffer at 4° C. for 30 min. Different concentrations of the tested inhibitor were added and incubated in 20 μL assay buffer at 4° C. for another 1 h. All of the above assay plates were covered and gently mixed on an orbital shaker. The donor and acceptor beads were then added to the plates to a final concentration of 10 μg/mL in 25 μL assay buffer. The mixture was incubated for 1 h at 4° C. before detection. The IC50 value was determined by nonlinear least-square analysis of GraphPad Prism 5.0. The Ki values were derived from the IC50 values using a method reported by Nikolovska-Coleska et al (Nikolovska-Coleska, Z.; Wang, R.; Fang, X.; Pan, H.; Tomita, Y.; Li, P.; Roller, P. P.; Krajewski, K.; Saito, N. G.; Stuckey, J. A.; Wang, S. Development and optimization of a binding assay for the XIAP BIR3 domain using fluorescence polarization. Anal. Biochem. 2004, 332, 261-273). The assays were conducted under the conditions required by Nikolovska-Coleska et al.'s equation for determining the Ki values. All of the experiments were performed in triplicate. The results were expressed as mean±standard deviation.
On the technique in general: In Alpha technology, singlet oxygen from a donor bead excites a nearby acceptor bead.

Where [1] appears, read: experiment 3, read-out: Ki (μM ± SD) experiment 3.
[2] abbreviates: experiment 4, read-out: Ki (μM ± SD) experiment 4.
[3] abbreviates: experiment 1, read-out: Ki (μM ± SD) experiment 1.
The mark [4] stands for this setting: experiment 2, read-out: Ki (μM ± SD) experiment 2.

As a reminder, the Ki is a measure of affinity in units of concentration, obtained from inhibition or displacement. Consider `CC(=O)Nc1cc(F)cc(C(=O)N2CCN(C(=O)c3ccc(O[C@H]4CCNC4)c(C4CCCCC4)c3)C(C(=O)NCC3CCCCC3)C2)c1` (stereo partly drawn) [Compound 26, 4-(3-Acetamido-5-fluorobenzoyl)-1-(3-cyclohexyl-4-(((S)-pyrrolidin-3-yl)oxy)benzoyl)-N-(cyclohexylmethyl) piperazine-2-carboxamide trifluoroacetate], for which the Ki is, setting by setting: under setting [1], 410 ± 56 µM; under setting [2], 770 ± 140 µM. Consider `CC(=O)Nc1cc(F)cc(C(=O)N2CCN(C(=O)c3ccc(O[C@H]4CCNC4)c(C4CCCCC4)c3)C(C(=O)Nc3ccccc3)C2)c1` (stereo partly drawn) [Compound 27, 4-(3-Acetamido-5-fluorobenzoyl)-1-(3-cyclohexyl-4-(((S)-pyrrolidin-3-yl)oxy)benzoyl)-N-phenylpiperazine-2-carboxamide trifluoroacetate], for which the Ki runs as follows: under setting [1], 130 ± 22 µM; under setting [2], 580 ± 83 µM. Take `CC(=O)Nc1cc(F)cc(C(=O)N2CCN(C(=O)c3ccc(O[C@H]4CCNC4)c(C4CCCCC4)c3)C(C(=O)NCc3ccccc3)C2)c1` (stereo partly drawn) [Compound 28, 4-(3-Acetamido-5-fluorobenzoyl)-N-benzyl-1-(3-cyclohexyl-4-(((S)-pyrrolidin-3-yl)oxy)benzoyl) piperazine-2-carboxamide trifluoroacetate]: the inhibition constant (Ki) was 660 ± 110 µM under setting [1] and 600 ± 89 µM under setting [2]. In the case of `CC(=O)Nc1cc(F)cc(C(=O)N2CCN(C(=O)c3ccc(O[C@H]4CCNC4)c(C4CCCCC4)c3)C(C(=O)N(C)Cc3ccccc3)C2)c1` (stereo partly drawn) [Compound 29, 4-(3-Acetamido-5-fluorobenzoyl)-N-benzyl-1-(3-cyclohexyl-4-(((S)-pyrrolidin-3-yl)oxy)benzoyl)-N-methylpiperazine-2-carboxamide trifluoroacetate], the inhibition constant Ki runs as follows: under setting [1], 560 ± 120 µM; under setting [2], 740 ± 150 µM. Turning to `NCc1cn(-c2cc(F)cc(C(=O)N3CCN(C(=O)c4ccc(O[C@H]5CCNC5)c(C5CCCCC5)c4)CC3)c2)nn1` [Compound 30, (S)-(4-(3-(4-(aminomethyl)-1H-1,2,3-triazol-1-yl)-5-fluorobenzoyl)piperazin-1-yl) (3-cyclohexyl-4-(pyrrolidin-3-yloxy)phenyl) methanone ditrifluoroacetate], the Ki under setting [3] stood at 110 ± 15 µM and the inhibition constant (Ki) under setting [4] amounted to 560 ± 71 µM.

Turning to `NCc1cn(-c2cc(F)cc(C(=O)N3CCN(C(=O)c4ccc(O[C@H]5CCNC5)c(C5CCC(C(F)(F)F)CC5)c4)CC3)c2)nn1` (stereo partly drawn) [Compound 31, (S)-(4-(3-(4-(aminomethyl)-1H-1,2,3-triazol-1-yl)-5-fluorobenzoyl)piperazin-1-yl) (4-(pyrrolidin-3-yloxy)-3-(4-(trifluoromethyl)cyclohexyl)phenyl) methanone ditrifluoroacetate], the Ki is over 350 µM under setting [3] and 610 ± 91 µM under setting [4].

For the compound `CNCc1cn(-c2cc(F)cc(C(=O)N3CCN(C(=O)c4ccc(O[C@H]5CCNC5)c(C5CCCCC5)c4)CC3)c2)nn1` [Compound 32, (S)-(4-(3-Cyclohexyl-4-(pyrrolidin-3-yloxy)benzoyl)piperazin-1-yl) (3-fluoro-5-(4-((methylamino)methyl)-1H-1,2,3-triazol-1-yl)phenyl) methanone dihydrochloride], the Ki under setting [1] is over 1000 µM.
